Experimental data as given in patent US4064137A (priority 1976, dated 1977).
Several values for one entry are separate records, joined by “and”; a condition that tells them apart may be missing. Equal entries are not always repeated. Where two headings read alike, the source gives them in different places.

Tests used:
spleen cells of a mouse = format: cell-based
Vaccinia virus = format: in vivo, mouse; conditions: for Number of pox / Inhibition percent: intraperitoneal; for Number of pox: 8th day after inoculation; for Inhibition percent: 8th day, vs control mouse

COC(=O)C1N2C(=O)C3(CC(C#N)=C(c4ccccc4)N3)C2SC1(C)C (stereo not drawn) [3'-Cyano-2'-phenyl-2'-pyrroline-5'-spiro-6-penicillanic acid methyl ester]
Interferon titre (spleen cells of a mouse): 320 unit and 160 unit | units of interferon induced (spleen cells of a mouse): 320 units | Number of pox (Vaccinia virus; 0.49 mg/kg × 4 times): 16.0 | Inhibition percent (Vaccinia virus; 0.49 mg/kg × 4 times): 34.7% | Number of pox (Vaccinia virus; 1.95 mg/kg × 4 times): 9.1 | Inhibition percent (Vaccinia virus; 1.95 mg/kg × 4 times): 62.9% | Number of pox (Vaccinia virus; 7.8 mg/kg × 4 times): 11.2 | Inhibition percent (Vaccinia virus; 7.8 mg/kg × 4 times): 54.3% | interferon inducibility (in words) (Vaccinia virus; conclusion after in vivo test): excellent interferon inducibility
